These are literature values, as cited in US6444224B1 (Interag, priority 1997, dated 2002).

For data set [1], the system named is pigs. The settings on record: oral, once daily at feeding.
In data set [2] the test system is pigs. The settings on record: 15, 25, 50 mg per day (IM) for 14 days.

For `C=CC[C@]1(O)CC[C@H]2[C@@H]3CCC4=CC(=O)CCC4=C3C=C[C@@]21C` [altrenogest], the “Effectiveness to control oestrus and ovulation” value in the data set on pigs [1] is listed as “effective”.

Turning to `CC(=O)[C@H]1CC[C@H]2[C@@H]3CCC4=CC(=O)CC[C@]4(C)[C@H]3CC[C@]12C` [progesterone], in the data set on pigs [2], the “Control of the oestrus cycle” value was “results in control of the oestrus cycle” and the Fertility result was “poor fertility results”.

Take `C=CC(C)NC(=S)NNC(=S)NC` (stereo not shown) [methallibure]: the “Effectiveness to control oestrus and ovulation” value in the data set on pigs [1] is on record as “effective”.
